# Target: T1, human GPR119 (Homo sapiens, UniProt Q8TDV5)
# T1 construct: expression vector for human GPR119 cDNA (Acc. No. NP_848566); expressed in transfected cells
# T1 sequence (Q8TDV5 1-335): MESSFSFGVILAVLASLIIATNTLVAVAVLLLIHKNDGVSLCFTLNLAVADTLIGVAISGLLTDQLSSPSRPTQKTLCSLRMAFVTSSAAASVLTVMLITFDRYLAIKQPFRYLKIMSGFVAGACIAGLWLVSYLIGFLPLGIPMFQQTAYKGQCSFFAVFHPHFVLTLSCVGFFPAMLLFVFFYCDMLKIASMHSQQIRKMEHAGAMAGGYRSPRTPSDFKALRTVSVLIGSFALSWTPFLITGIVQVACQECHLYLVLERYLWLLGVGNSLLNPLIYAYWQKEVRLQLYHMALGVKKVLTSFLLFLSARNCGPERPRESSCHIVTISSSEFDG
# Experiment: AlphaScreen cAMP assay, activation of GPR119 in MIN6 cells stably transfected with human GPR119
# Assay type: cell-based
# Details: Min-6/hGPR119 cells, intracellular cAMP, 45 minutes incubation at room temperature
# Protocol: The compounds of the invention modulate the activity of the G-protein-coupled receptor GPR119. The effect of the compounds on the activation of GPR119 and on the stimulation of intracellular cAMP concentration is determined using the AlphaScreen cAMP Assay Kit (Cat.No.#6760625R) made by Perkin Elmer.
# MIN6 cells [Miyazaki J et al., Endocrinology. 1990 July; 127(1):126-32] are stably transfected with an expression vector for human GPR119 cDNA (Acc. No. NP_848566). Min-6/hGPR119 cells are cultured in DMEM, 10% FBS, 50 μM β-mercaptoethanol, 0.3 mg/mL Geniticin, 2 mM GlutaMAX at 37° C., 5% CO2. For the assay, the cells are seeded in Optiplates (white, 384-well, 160W-barcoded, TC, sterile with lid, Cat.No.#6007688 (Perkin Elmer); 10000 cells/well; 50 μL). The plates covered with lids are then incubated for 24 hours at 37° C., 5% CO2. After the medium is aspirated from the wells completely, 10 μl of the test compound are added, the compounds are diluted using stimulating buffer (140 mM NaCl, 3.6 mM KCl, 0.5 mM NaH2PO4, 0.5 mM MgSO4, 1.5 mM CaCl2, 10 mM Hepes, 5 mM NaHCO3; pH 7.4. 0.5 mM IBMX and 0.1% BSA, the final DMSO concentration is 1%). After 45 minutes incubation at room temperature (approx. 20° C.), the cAMP concentrations are determined using the AlphaScreen cAMP Assay Kit (Cat.No.#6760625R from PerkinElmer).
row,EC50 [nM],Structure (SMILES)
1,109,"C[C@H](OC(=O)N1CCC([C@]2(C)Cc3cc(C4=CCN(S(C)(=O)=O)CC4)ncc3O2)CC1)C(F)(F)F [Example 5, (S)-4-[(S)-5-(1-Methanesulfonyl-1,2,3,6-tetrahydro-pyridin-4-yl)-2-methyl-2,3-dihydro-furo[2,3-c]pyridin-2-yl]-piperidine-1-carboxylic acid 2,2,2-trifluoro-1-methyl-ethyl ester]"
2,5,"C[C@H](OC(=O)N1CCC([C@H]2Cc3cc(-c4ccc(S(C)(=O)=O)cc4)ncc3O2)CC1)C(F)(F)F [Example 1, (S)-4-[(R)-5-(4-Methanesulfonyl-phenyl)-2,3-dihydro-furo[2,3-c]pyridin-2-yl]-piperidine-1-carboxylic acid 2,2,2-trifluoro-1-methyl-ethyl ester]"
3,6,"C[C@@H](OC(=O)N1CCC([C@H]2Cc3cc(C4=CCN(S(C)(=O)=O)CC4)ncc3O2)CC1)C(F)(F)F [Example 3, (R)-4-[(R)-5-(1-Methanesulfonyl-1,2,3,6-tetrahydro-pyridin-4-yl)-2,3-dihydro-furo[2,3-c]pyridin-2-yl]-piperidine-1-carboxylic acid 2,2,2-trifluoro-1-methyl-ethyl ester]"
4,1,"C[C@H](OC(=O)N1CCC([C@@]2(C)Cc3cc(-c4ccc(S(C)(=O)=O)cc4)ncc3O2)CC1)C(F)(F)F [Example 9, (S)-4-[(R)-5-(4-Methanesulfonyl-phenyl)-2-methyl-2,3-dihydro-furo[2,3-c]pyridin-2-yl]-piperidine-1-carboxylic acid 2,2,2-trifluoro-1-methyl-ethyl ester]"
5,4,"C[C@@H](OC(=O)N1CCC([C@@]2(C)Cc3cc(-c4ccc(S(C)(=O)=O)cc4)ncc3O2)CC1)C(F)(F)F [Example 8, (R)-4-[(R)-5-(4-Methanesulfonyl-phenyl)-2-methyl-2,3-dihydro-furo[2,3-c]pyridin-2-yl]-piperidine-1-carboxylic acid 2,2,2-trifluoro-1-methyl-ethyl ester]"
6,5,"C[C@H](OC(=O)N1CCC([C@H]2Cc3cc(C4=CCN(S(C)(=O)=O)CC4)ncc3O2)CC1)C(F)(F)F [Example 4, (S)-4-[(R)-5-(1-Methanesulfonyl-1,2,3,6-tetrahydro-pyridin-4-yl)-2,3-dihydro-furo[2,3-c]pyridin-2-yl]-piperidine-1-carboxylic acid 2,2,2-trifluoro-1-methyl-ethyl ester]"
7,7,"C[C@@H](OC(=O)N1CCC([C@@]2(C)Cc3cc(C4=CCN(S(C)(=O)=O)CC4)ncc3O2)CC1)C(F)(F)F [Example 6, (R)-4-[(R)-5-(1-Methanesulfonyl-1,2,3,6-tetrahydro-pyridin-4-yl)-2-methyl-2,3-dihydro-furo[2,3-c]pyridin-2-yl]-piperidine-1-carboxylic acid 2,2,2-trifluoro-1-methyl-ethyl ester]"
8,6,"C[C@@H](OC(=O)N1CCC([C@H]2Cc3cc(-c4ccc(S(C)(=O)=O)cc4)ncc3O2)CC1)C(F)(F)F [Example 2, (R)-4-[(R)-5-(4-Methanesulfonyl-phenyl)-2,3-dihydro-furo[2,3-c]pyridin-2-yl]-piperidine-1-carboxylic acid 2,2,2-trifluoro-1-methyl-ethyl ester]"
9,3,"C[C@H](OC(=O)N1CCC([C@@]2(C)Cc3cc(C4=CCN(S(C)(=O)=O)CC4)ncc3O2)CC1)C(F)(F)F [Example 7, (S)-4-[(R)-5-(1-Methanesulfonyl-1,2,3,6-tetrahydro-pyridin-4-yl)-2-methyl-2,3-dihydro-furo[2,3-c]pyridin-2-yl]-piperidine-1-carboxylic acid 2,2,2-trifluoro-1-methyl-ethyl ester]"
